In patent publication US11078168B2, “Substituted N-hydroxyamidinoheterocycles as modulators of indoleamine 2,3-dioxygenase” (PHENEX DISCOVERY VERWALTUNGS-GMBH, priority 2016, dated 2021) one finds IC50 data, which are given here for 46 compounds.

T1 sequence (P14902 whole entry): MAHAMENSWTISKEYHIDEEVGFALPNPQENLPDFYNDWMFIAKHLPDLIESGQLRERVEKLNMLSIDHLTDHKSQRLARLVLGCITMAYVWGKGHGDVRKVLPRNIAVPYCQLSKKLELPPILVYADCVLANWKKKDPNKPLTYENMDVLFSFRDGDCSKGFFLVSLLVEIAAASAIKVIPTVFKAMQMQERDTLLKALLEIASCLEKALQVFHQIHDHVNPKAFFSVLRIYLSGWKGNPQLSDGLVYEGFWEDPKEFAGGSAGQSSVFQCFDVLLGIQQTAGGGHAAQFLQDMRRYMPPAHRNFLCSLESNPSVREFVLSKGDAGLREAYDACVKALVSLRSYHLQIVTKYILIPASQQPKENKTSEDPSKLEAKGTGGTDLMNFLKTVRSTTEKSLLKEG

The assay has as its target T1, Indoleamine 2,3-dioxygenase (Homo sapiens, UniProt P14902).
T1 construct: endogenous in cells; host or cells: SKOV-3 (ATCC HTB-77), stimulated with interferon gamma
Description: SKOV-3 cellular Indoleamine 2,3-dioxygenase assay. Conditions: SKOV-3 cells, 50 ng/ml Interferon gamma, 100 μM L-Tryptophan, 24 hours, N-Formylkynurenin fluorescence detection; read-out: cell based activity. On the procedure:
SKOV-3 cellular Indoleamine 2,3-dioxygenase assay
SKOV-3 cells were obtained from the American Type Culture Collection (ATCC® HTB-77™) and maintained in McCoy's medium (Pan Biotech) supplemented with 10% fetal bovine serum and 1% Penicilin/Streptomycin. Cells were kept at 37° C. in a humidified incubator with 5% CO2. For assay preparation, cells were seeded at a density of 2*10^5/ml into black clear bottom 96 well plates in 100 μl medium/well supplemented with 50 ng/ml Interferon gamma (eBioscience, Thermo Fisher Scientific). After cells fully adhered to the plate, dilution series of compounds were added in medium containing additional L-Tryptophan to a final L-Tryptophan concentration of 100 μM. The cells were incubated for 24 hours. Detection of produced N-Formylkynurenin was performed by addition of 3-Methylpiperidine to a final concentration of 200 mM. The plates were sealed and heated to 65° C. for 20 minutes in a water bath. After cooling the fluorescence of each well was recorded with a Victor™X4 (PerkinElmer) plate reader at an emission wavelength of 535 nm and excitation at 405 nm (Tomek et al.; Anal Bioanal Chem (2013) 405:2515-2524., Tomek et al.; Biochim Biophys Acta. 2015 September; 1850(9):1772-80).
For the compound `CC(CNS(N)(=O)=O)Oc1nonc1C(=NO)Nc1ccc(F)c(Cl)c1` (single isomer, unassigned) [16/1, N-(3-Chloro-4-fluorophenyl)-N′-hydroxy-4-((1-(sulfamoylamino)propan-2-yl)oxy)-1,2,5-oxadiazole-3-carboximidamide], the IC50 was > 1000 nM. Consider `C[C@@H](CSc1nonc1C(=NO)Nc1ccc(F)c(C(F)F)c1)NC(=O)CS(N)(=O)=O` (single isomer, unassigned) [114/1], for which the IC50 is < 100 nM.

Turning to `C[C@H](CSc1nonc1C(=NO)Nc1ccc(F)c(C(F)F)c1)NC(=O)CCS(N)(=O)=O` (single isomer, unassigned) [114/2], the IC50 was < 100 nM. For `C[C@@H](CSc1nonc1C(=NO)Nc1ccc(F)c(C(F)F)c1)NC(=O)CCS(N)(=O)=O` (single isomer, unassigned) [114/3] the value was < 100 nM; for `C[C@H](CSc1nonc1/C(=N/O)Nc1ccc(F)c(Br)c1)NC(=O)CS(N)(=O)=O` (single isomer, unassigned) [114/4], < 100 nM. For `C[C@@H](CSc1nonc1/C(=N/O)Nc1ccc(F)c(Br)c1)NC(=O)CS(N)(=O)=O` (single isomer, unassigned) [114/5] the value was < 100 nM.

As for `CC(CNS(N)(=O)=O)Oc1nonc1C(=NO)Nc1ccc(F)c(Cl)c1` (single isomer, unassigned) [Example 16, N-(3-Chloro-4-fluorophenyl)-N′-hydroxy-4-((1-(sulfamoylamino)propan-2-yl)oxy)-1,2,5-oxadiazole-3-carboximidamide], the IC50 is > 1000 nM. For `CC(CSc1nonc1C(=NO)Nc1ccc(F)c(C(F)F)c1)NC(=O)CS(N)(=O)=O` (single isomer, unassigned) [Example 114, N-(1-((4-(N-(3-(difluoromethyl)-4-fluorophenyl)-N′-hydroxycarbamimidoyl)-1,2,5-oxadiazol-3-yl)thio)propan-2-yl)-2-sulfamoylacetamide] the value was < 100 nM. For `CC(CSc1nonc1C(=NO)Nc1ccc(F)c(C(F)F)c1)NC(=O)CC(N)=O` (single isomer, unassigned) [Example 115, N^1-(1-((4-(N-(3-(Difluoromethyl)-4-fluorophenyl)-N′-hydroxycarbamimidoyl)-1,2,5-oxadiazol-3-yl)thio)propan-2-yl)malonamide] the value was < 100 nM; for `CC(CSc1nonc1C(=NO)Nc1ccc(F)c(C(F)F)c1)NC(=O)CC(N)=O` (single isomer, unassigned) [Example 115/1, N^1-(1-((4-(N-(3-(difluoromethyl)-4-fluorophenyl)-N′-hydroxycarbamimidoyl)-1,2,5-oxadiazol-3-yl)thio)propan-2-yl)malonamide], < 100 nM. Consider `CS(=O)(=O)NCCOc1nonc1C(=NO)Nc1ccc(F)c(Cl)c1` [1/1], for which the IC50 was < 100 nM. For `O=S(=O)(NCCOc1nonc1C(=NO)Nc1ccc(F)c(Cl)c1)C(F)(F)F` [1/2], the IC50 was > 1000 nM.

Consider `O=S(=O)(NCCOc1nonc1C(=NO)Nc1ccc(F)c(Cl)c1)C(F)F` [1/3], for which the IC50 was < 100 nM. `C[S+]([O-])NCCOc1nonc1C(=NO)Nc1ccc(F)c(Cl)c1` (stereo not shown) [1/4]: the IC50 was in the range of 100 to 1000 nM. As for `Nc1c(NCCOc2nonc2C(=NO)Nc2ccc(F)c(Br)c2)c(=O)c1=O` [2/1], the IC50 is < 100 nM. The result for `Nc1c(NCCOc2nonc2C(=NO)Nc2ccc(F)c(C(F)F)c2)c(=O)c1=O` [2/3] reads < 100 nM; that for `Nc1c(NCCCOc2nonc2C(=NO)Nc2ccc(F)c(Cl)c2)c(=O)c1=O` [2/4], < 100 nM. The result for `Nc1c(NCCOc2nonc2C(=NO)Nc2ccc(F)c(C(F)(F)F)c2)c(=O)c1=O` [2/5] reads < 100 nM. For `Nc1c(NCCOc2nonc2C(=NO)Nc2cccc(C(F)(F)F)c2)c(=O)c1=O` [2/6] the value was < 100 nM; for `Nc1c(NCCOc2nonc2C(=NO)Nc2cccc(C(F)F)c2)c(=O)c1=O` [2/7], 100 to 1000 nM; for `N[C@@H](CC(=O)NCCOc1nonc1C(=NO)Nc1ccc(F)c(Cl)c1)C(=O)O` [3/1], 100 to 1000 nM.

Take `O=C(NCCOc1nonc1C(=NO)Nc1ccc(F)c(Cl)c1)C1(O)CNC1` [3/2]: the IC50 lay within 100 to 1000 nM. As to `O=C(NCCOc1nonc1C(=NO)Nc1ccc(F)c(Cl)c1)C1(F)CNC1` [3/3], the IC50 fell in the range of 100 to 1000 nM. For `NC(C(=O)NCCOc1nonc1C(=NO)Nc1ccc(F)c(Cl)c1)C(F)(F)F` (stereo not shown) [3/4] the value was < 100 nM; for `NC(=O)CS(=O)(=O)NCCOc1nonc1C(=NO)Nc1ccc(F)c(C(F)(F)F)c1` [4/1], < 100 nM; for `NC(=O)CS(=O)(=O)NCCOc1nonc1C(=NO)Nc1ccc(F)c(C(F)F)c1` [4/2], < 100 nM. For `NS(=O)(=O)NCCOc1nonc1/C(=N/O)Nc1ccc(F)c(Cl)c1` [6/1] the value was < 100 nM; for `NS(=O)(=O)NCCOc1nonc1C(=NO)Nc1ccc(F)c(C(F)F)c1` [6/2], < 100 nM. For `NS(=O)(=O)NCCOc1nonc1C(=NO)Nc1cccc(C(F)F)c1` [6/3] the value was 100 to 1000 nM; for `CN(CCOc1nonc1C(=NO)Nc1ccc(F)c(Cl)c1)S(N)(=O)=O` [6/4], 100 to 1000 nM. With `CNS(=O)(=O)N(C)CCOc1nonc1C(=NO)Nc1ccc(F)c(Cl)c1` [6/5], the IC50 lay within 100 to 1000 nM. In the case of `CN(C)S(=O)(=O)NCCOc1nonc1C(=NO)Nc1ccc(F)c(Cl)c1` [6/6], the IC50 was < 100 nM. For `NC(=O)CC(=O)NCCOc1nonc1C(=NO)Nc1ccc(F)c(Cl)c1` [7/1, N^1-(2-((4-(N-(3-chloro-4-fluorophenyl)-N′-hydroxycarbamimidoyl)-1,2,5-oxadiazol-3-yl)oxy)ethyl)malonamide] the value was < 100 nM. For `COc1nonc1/C(=N/O)Nc1ccc(F)c(Br)c1` [8/1, N-(3-Bromo-4-fluorophenyl)-N-hydroxy-4-methoxy-1,2,5-oxadiazole-3-carboximidamide] the value was < 100 nM; for `COc1nonc1C(=NO)Nc1ccc(F)c(Cl)c1` [8/2], 100 to 1000 nM. The result for `O/N=C(\Nc1ccc(F)c(Br)c1)c1nonc1OCC(F)(F)F` [8/3, N-(3-Bromo-4-fluorophenyl)-N′-hydroxy-4-(2,2,2-trifluoroethoxy)-1,2,5-oxadiazole-3-carboximidamide] reads 100 to 1000 nM. Consider `O=C(NCCOc1nonc1C(=NO)Nc1ccc(F)c(Cl)c1)c1ccc(F)cc1` [9/1], for which the IC50 was in the range of 100 to 1000 nM. For `O=C(NCCOc1nonc1C(=NO)Nc1ccc(F)c(Cl)c1)c1ccc2[nH]ccc2c1` [9/2], the IC50 lay within 100 to 1000 nM. Take `O=C(NCCOc1nonc1C(=NO)Nc1ccc(F)c(Cl)c1)C1CC1` [9/3]: the IC50 is < 100 nM. For `O=C(NCCOc1nonc1C(=NO)Nc1ccc(F)c(Cl)c1)c1cnccn1` [9/4] the value was 100 to 1000 nM; for `O=C(NCCOc1nonc1C(=NO)Nc1ccc(F)c(Cl)c1)c1nnc[nH]1` [9/5], 100 to 1000 nM; for `O=C(CC1SC(=O)NC1=O)NCCOc1nonc1C(=NO)Nc1ccc(F)c(Cl)c1` (stereo not shown) [9/6], > 1000 nM. For `O=C(NCCCOc1nonc1C(=NO)Nc1ccc(F)c(Cl)c1)C(O)CO` (stereo not shown) [9/7] the value was 100 to 1000 nM; for `O=C(NCCCOc1nonc1C(=NO)Nc1ccc(F)c(Cl)c1)c1nn[nH]n1` [9/8], > 1000 nM. The result for `O=C(O)c1ccc(C(=O)NCCOc2nonc2C(=NO)Nc2ccc(F)c(Cl)c2)cc1` [9/9] reads > 1000 nM; that for `O=C(NCCOc1nonc1C(=NO)Nc1ccc(F)c(Cl)c1)c1n[nH]c(=O)[nH]1` [9/10], > 1000 nM.
